Laboratory results reported in US6660251B1, “Galenic formulation containing biotin” (Merck Patent GmbH, priority 1999, dated 2003).

Tests used:
[1] = tested on: native human keratinocytes; assay: Investigations on the lipid (fatty acid) content of native human keratinocytes under biotin; assay type: cell-based; conditions: under the action of biotin
Protocol: HaCaT cells (human adult low-calcium high-temperature keratinocytes) and native human keratinocytes are cultured in Gibco's keratinocyte serum-free medium (SFM) with addition of BPE (25 μg/ml bovine hypophysis extract) and rEGF (0.1-0.2 ng/ml, recombinant epidermal growth factor) in 5% strength CO2 atmosphere (pH 7.2-7.4) at 36.6° C. in the low-calcium status (0.09 mM) in culture flasks (1 million cells/20 ml of SFM) and treated with the biotin solution (biotin dissolved in buffer according to McIloaine; medium concentration 10^−7-10^−3 mol/l and solvent control) on the 3rd day after sowing. On the 6th day, the confluent monolayer is harvested and the samples are prepared, individual pellets up to 3 million cells each being used for the lipid extraction and for the protein determination. […]
(§1) The lipid film is taken up in 4 ml of methanol (gradient grade for HPLC) and analyzed via GC-MS.
The extracted lipids of the keratinocytes are analyzed as methanolic solutions via GC-MS in order to quantify the fatty acids contained therein. […]
(§2) The protein content of the cells is determined according to the Lowry method using the protein assay kit. After preparation according to the procedure for the kit (P 5656), the measurement was carried out on an absorption reader at 690 nm.

[2] = Penetration investigations on human skin ex vivo (FRANZ diffusion cell, 14C-biotin); assay type: in vitro ADME
Text: To characterize the penetration behavior of biotin from different emulsions in excised human skin, FRANZ's diffusion cell is chosen as an in-vitro model. The selection of the model is based on the experience of the authors, who were able to detect correlating results between the in-vitro data of the model and the in-vivo results (R. J. Feldmann, et al. (1970): Absorption of some organic compounds through the skin in man. J. Invest. Dermatol. 54: 399-404: T. J. Franz (1975): Percutaneous absorption. On the relevance of in vitro data. J. Invest. Dermatol. 64: 190-195). The basic unit of the FRANZ diffusion cell consists of a double-walled, temperature-controllable glass section. The acceptor liquid which is continuously kept in the homogeneous state by stirring is situated therein. In direct contact with the acceptor is the sample material on a gauze, which is stabilized by a glass ring and a metal clamp. A glass cover functions as evaporation protection for the upkeep of largely constant hydration conditions during the investigation period. […] It is determined quantitatively in fractionation of the detachments in pairs (10×2). […] Following this, the samples are measured in the liquid scintillation counter with addition of two blank values. […]

[3] = tested on: skin of old people; conditions: cited from earlier work
[4] = tested on: HaCaT keratinocytes; assay: Investigations on the lipid (fatty acid) content of HaCaT keratinocytes under biotin; assay type: cell-based, human
Protocol: HaCaT cells (human adult low-calcium high-temperature keratinocytes) and native human keratinocytes are cultured in Gibco's keratinocyte serum-free medium (SFM) with addition of BPE (25 μg/ml bovine hypophysis extract) and rEGF (0.1-0.2 ng/ml, recombinant epidermal growth factor) in 5% strength CO2 atmosphere (pH 7.2-7.4) at 36.6° C. in the low-calcium status (0.09 mM) in culture flasks (1 million cells/20 ml of SFM) and treated with the biotin solution (biotin dissolved in buffer according to McIloaine; medium concentration 10^−7-10^−3 mol/l and solvent control) on the 3rd day after sowing. On the 6th day, the confluent monolayer is harvested and the samples are prepared, individual pellets up to 3 million cells each being used for the lipid extraction and for the protein determination.
The cells are extracted following the lipid extraction of Bligh and Dyer (B. E. Bligh et al. (1959) A rapid method of total lipid extraction and purification. Can. J. Biochem. Physiol. 37: 911-917). For this, the cell pellet is treated with 20 ml of a solvent mixture (chloroform: methanol=2:1), homogenized with stirring and extracted with shaking in the dark for 30 min. It is then filtered through a sterile filter and the extract is concentrated on a vacuum rotary evaporator.
as §1
The extracted lipids of the keratinocytes are analyzed as methanolic solutions via GC-MS in order to quantify the fatty acids contained therein. 100 μl of the solution are reacted with 1 μl each of 0.2 M trimethylsulfionium hydroxide to give methyl esters in order to improve the evaporability.
as §2
The results of the influence of biotin on the fatty acid content of HaCaT keratinocytes are shown in FIGS. 1 to 4 for various concentrations of biotin (dissolved in buffer according to McIloaine). As control, the fatty acid content of the HaCaT keratinocytes after corresponding action of the buffer without biotin is moreover shown in FIGS. 1 to 4. The contents of the fatty acids myristic acid (MA), palmitic acid (PA), stearic acid (SA), oleic acid (OS) and linoleic acid (LA) are shown based on the protein content of the cells.

[5] = cited from earlier work

Question: Which “concentration of linoleic acid (LA)” value [1] does the source give for O=C(O)CCCCC1SCC2NC(=O)NC21 (stereo not drawn) [biotin, hexahydro-2-oxiothieno [3,4-d]imidazole-4-valeric acid] here?
Answer: absence of an increase

Question: What about the “concentration of the fatty acids myristic acid (MA), palmitic acid (PA), stearic acid (SA) and oleic acid (OA)” value [1] of the same compound?
Answer: Increases

Question: And the “penetration of biotin through the horny layer of the human skin” value [2]?
Answer: does not penetrate or does not penetrate in an efficacious concentration

Question: And the “epithelial and histopathological changes in the areas treated” value ([3]; in vivo)?
Answer: not possible to show any epithelial and histopathological changes at all

Question: And the “development of wrinkles on the skin of old people” value ([3]; topically applied formulations, biotin content 0.25% and 0.50%)?
Answer: visible reduction

Question: And the “concentration of linoleic acid (LA)” value ([4]; HaCaT keratinocytes, under the action of biotin)?
Answer: absence of an increase

Question: And the “lipid synthesis power of keratinocytes” value ([4]; biotin concentration in the medium 10^−5 to 10^−3 mol/l)?
Answer: increased

Question: And the “lipid synthesis power of keratinocytes” value ([4]; biotin concentration in the medium 10^−6 mol/l)?
Answer: inefficacious

Question: And the “concentration of the fatty acids myristic acid (MA), palmitic acid (PA), stearic acid (SA) and oleic acid (OA)” value ([4]; culture of HaCaT keratinocytes, under the action of biotin)?
Answer: Increases

Question: And the effective biotin concentration ([4]; stimulation of lipid synthesis, from FIG. 2)?
Answer: 10^−5 mol/l

Question: And the “efficacy in soft, brittle and splitting nails, different forms of alopecia and atopic and seborrheic dermatitis” value ([5]; continuous biotin therapy)?
Answer: possible to show the efficacy

Question: And the side effects ([5]; in vivo)?
Answer: no side effects at all
